What was measured:
[1] = system: phosphorylated tau (p-tau); test: ELISA of phosphorylated tau relative to α-tubulin; type: cell-based, human; settings: 10 nM; n=5
Procedure: (§1) The human neuroblastoma cell line, SH-SY5Y (ECACC, UK) was maintained in Dulbecco's Modified Eagle Medium supplemented with glucose ([…]) and 10% (v/v) cosmic calf serum (Fisher Scientific, UK) at 37° C. in a humidified atmosphere of 5% CO2, 95% air and allowed to reach 70-80% confluence before seeding. Cells (passage 10-18) were plated at 10 000 cells per well in 96 well tissue culture plates (Nunc, VWR, UK) and at a density of 2×10^5 cells in 35 mm dishes for protein extraction. To induce differentiation, cells were cultured in DMEM supplemented with glucose ([…]), 1% (v/v) cosmic calf serum and 10 μM retinoic acid for 5 days. Thereafter they were incubated in DMEM supplemented with glucose ([…]), serum replacement 2 (2%; Sigma, UK) and 18 μM 5-fluorodeoxyuridine to inhibit proliferation of undifferentiated cells. The 50% of the medium was changed every 2-3 days and pharmacological treatment was carried out 7 days after switching to this medium. Reagents used were (from Sigma UK unless stated) 0.1-10 nM human leptin and leptin (116-130); 0.1-10 nM leptin (22-56; Bachem; Switzerland); 10 nM leptin (116-121) leptin (117-122), leptin (124-129) or leptin (125-130; all Severn Biotech, UK); 5 μM copper chloride; […], 5 μM WP1066 or 50 nM wortmannin. All treatments were added to the culture at the same time and survival assays were carried out after 96 h treatment. Protein samples for signaling ELISA were extracted 3 h after exposure to the relevant reagents and for biomarker expression after 72 hours.
Protein from cultures was extracted into 500 μl Tris-buffered saline containing protease inhibitor cocktail, and a Bradford assay used to determine protein concentration. Samples were diluted to give equal loading onto ELISA plates. Commercially available ELISA kits were used in accordance with the manufacturer's instructions to determine the ratio of pan-STAT3 to phospho-STAT3 (Sigma, UK) and pan-Akt to phospho-Akt (Sigma, UK) and the levels of alpha-tubulin and phosphorylated tau (Sigma, UK). Each protein sample was run in duplicate using samples derived from at least 5 biological repeats.
Hyper-phosphorylation of tau is the underpinning mechanism of the development of neurofibrillary tangles—one of the key pathological feature of AD. Human SH-SY5Y neuronal cells were exposed to Aβ1-42 alone or in combination with 10 nM leptin, leptin (116-130), leptin (116-121), leptin (117-122), leptin (124-129) or leptin (125-130). Protein was extracted for ELISA assay and the ratio of p-tau to the house-keeping protein α-tubulin determined (FIG. 11C). […] Thus for Aβ1-42-treated cells, 10 nM leptin and 10 nM leptin (116-130) reduced p-tau expression by 56.2±8.0% and 58.9+4.6% respectively compared with Aβ1-42 alone (n=5; P<0.001; FIG. 11C); an effect that was mirrored by 10 nM leptin (116-121) and leptin (117-122); 58.1±4.0% and 45.48±6.1% (n=5; P<0.001 and P<0.01 respectively; FIG. 11C), but not by 10 nM leptin (124-129) or leptin (125-130)(n=5; P>0.5; FIG. 11C).

[2] = system: differentiated human neural cells (SH-SY5Y); test: LDH release assay (membrane leakage, cell death); type: cell-based; settings: 10 μM Aβ1-42; for reduction of LDH release compared with Aβ1-42 alone, hexamer study: 10 nM, n=11
Procedure: as §1
(§2) The concentration of lactate dehydrogenase (LDH) in the culture medium or the mitochondrial activity within cells was used to monitor the level of cell death, as previously (Oldreive and Doherty 2010). In certain experiments, a Crystal violet assay was used to assess total cell number. Cells were fixed in neutral buffered formalin and washed 3 times in PBS prior to staining with 0.01% crystal violet acetate for 5 min. Plates were washed 5-10 times in dH2O and cells solubilised in 100 μl dimethyl sulfoxide (DMSO) before reading the absorbance on a Biohit BP100 plate reader. For all assays, data is expressed as percentage relative to control, untreated wells to normalize for differences in plating density between individual experiments.
To determine whether leptin (116-130) has neuroprotective actions, the effects of leptin (116-130) on the viability of differentiated human neural cells (SH-SY5Y) was examined after exposure to either 5 μM CuCl2 or 10 μM Aβ1-42. Cells were treated with the toxin alone or with a range of concentrations (10-0.1 nM) of leptin or leptin (116-130). […] Thus like leptin, treatment with leptin (116-130) reduces neuronal death in response to AD-linked toxins in vitro.

[3] = system: GluA1 surface expression in cultured hippocampal neurons; test: Surface labelling of AMPA receptor subunit GluA1 (immunocytochemistry); type: cell-based, Sprague Dawley rats; settings: for GluA1 surface expression, hexamer study: 10 nM, 15 min
acute hippocampal slices = test: HFS-induced LTP with leptin hexamers; type: cell-based, Sprague Dawley rats; settings: 10 nM for 50 min prior to HFS; control LTP 117±10.8% / 125±4.9%
Procedure: Parasagittal hippocampal slices (300 μm) were prepared from either P13-21 or 12-24-week-old male Sprague Dawley rats as previously (Moult et al. 2010). Brains were rapidly removed and placed in ice-cold artificial CSF (aCSF; bubbled with 95% O2 and 5% CO2) containing the following (in mm): 124 NaCl, 3 KCl, 26 NaHCO3, 1.25 NaH2PO4, 2 CaCl2, 1 MgSO4, and 10 d-glucose. Once prepared, parasagittal slices were allowed to recover at room temperature in oxygenated aCSF for 1 h before use. Slices were transferred to a submerged chamber maintained at room temperature and perfused with artificial cerebrospinal fluid at 2 ml min^−1. Standard extracellular recordings were used to monitor evoked field excitatory postsynaptic potentials (fEPSP) from stratum radiatum. The Schaffer collateral-commissural pathway was stimulated (constant voltage; 0.1 ms) at 0.033 Hz, using a stimulus intensity that evoked a peak amplitude ˜50% of the maximum. Synaptic potentials were low pass filtered at 2 kHz and digitally sampled at 10 kHz. The fEPSP slope was measured and expressed relative to baseline. Synaptic records are the average of 4 consecutive responses and stimulus artefacts are blanked for clarity. Recordings were made using an Axopatch 200B amplifier and analyzed using LTP v2.4 software. In synaptic plasticity studies, the degree of potentiation was calculated 30-35 min after HFS and expressed as a percentage of baseline±standard error of mean (SEM).
To determine if the leptin hexamers influence the magnitude of activity-dependent synaptic plasticity, standard extracellular recording techniques were used to assess the effects of leptin (116-121, 117-122, 118-123, 120-125, 124-129 and 125-130) on the magnitude of LTP induced by high frequency stimulation (100 Hz, 1 s) in acute hippocampal slices. […] In parallel studies, application of leptin (118-123; 158±3.8%; n=7; p<0.05; FIG. 8) or leptin (120-125; to 163±8.8% of baseline; n=5; p<0.05) also facilitated LTP, compared to control LTP (FIG. 8).

[4] = system: differentiated SH-SY5Y human neuronal cells; test: MTT assay of mitochondrial activity (cell viability); type: cell-based; settings: 10 nM; n=11
Procedure: as §1, §2
To confirm the findings of the LDH assay, cells were treated with Aβ1-42 alone or with a 10 nM of leptin, leptin (116-130) or the listed hexamers, and mitochondrial activity, as a measure of cell viability, determined by MTT assay. A significant increase in mitochondrial activity was detected following treatment with either leptin or leptin (116-130; both 10 nM). […] Thus for Aβ1-42-treated cells, 10 nM leptin and 10 nM leptin (116-130) increased mitochondrial activity by 32.6±5.2% and 40.9+5.8% respectively compared with Aβ1-42 alone (n=11; P<0.001; FIG. 11B); an effect that was mirrored by 10 nM leptin (116-121) and leptin (117-122); 43.61±3.9% and 40.5±3.7*% (n=11; P<0.001; FIG. 11B), but not by 10 nM leptin (124-129) or leptin (125-130) (n=11; P>0.5; FIG. 11B). This reinforces the findings from the LDH assay that similar to either leptin or leptin (116-130), treatment with leptin (116-121) or leptin (117-122) reduces neuronal death in response to AD-linked toxins in vitro.

[5] = system: tau in hippocampal neurons; test: Immunocytochemistry of endogenous tau and tau/PSD-95 co-localization; type: cell-based, Sprague-Dawley rats; settings: Aβ1-42 1 μM plus leptin/fragment 10 nM or SB216763 100 nM
Procedure: Hippocampal cultures were prepared as previously (Moult et al, 2010). Neonatal Sprague-Dawley rats (1-3 d old) were […] killed by cervical dislocation in accordance with the UK Animals (Scientific Procedures Act) 1986 legislation. Hippocampi were removed, and after washing in HEPES-buffered saline comprising (mM) 135 NaCl; 5 KCl; 1 CaCl2; 1 MgCl2; 10 HEPES; and 25 D-glucose at […], were treated with papain (1.5 mg ml21; Sigma-Aldrich) for 20 min at 37° C. Dissociated cells were plated onto sterile dishes (35 mm diameter; Greiner Bio-One, Kremsmun-ster, Austria) treated with poly-D-lysine (20 μg ml^−1; 1-2 h). Cultures were maintained in serum replacement medium (SR2; Sigma-Aldrich) in a humidified atmosphere of 5% CO2 and […] at 37° C. for up to 2 wk.
Immunocytochemistry was conducted on primary hippocampal cultures (7-14 DIV). Prior to labelling with antibodies, neurons were washed with HBS containing glycine (0.01 mM) and incubated with agents for 1 h at room temperature. Cultures were fixed with 4% paraformaldehyde for 5 min, then permeabilized with 0.1% Triton X-100 for 5 min. To label endogenous tau, neurons were incubated with a rabbit anti-tau (Ab-217; Genscript) primary antibody (1:200 dilution) at room temperature for 30 min, followed by incubation with an Alexa Fluor555 donkey anti-rabbit (1:250, Invitrogen) secondary antibody for an additional 30 min duration. To assess the % co-localisation of tau at synapses, neurons were dual labelled with an antibody against the synaptic marker, PSD-95 (mouse anti-PSD-95; 1:500, Thermo Fisher) followed by application of an Alexa Fluor488 goat anti-mouse secondary antibody (1:500, Invitrogen).
A Zeiss LSM510 confocal microscope was used for image acquisition and analysis. Images were obtained using a 10-s scan speed in single tracking mode or multi-tracking mode for dual labelling experiments. The intensity of immunostaining was measured off-line using Lasersharp software (Zeiss Lasersharp), whereby analysis lines of 50 μm length were drawn along randomly selected dendritic regions. All data were obtained from at least three different cultures from different animals. Imaging conditions including illumination intensity and photomultiplier gains were kept constant between treatments for each experiment. In addition, data were normalised relative to the mean fluorescence intensity obtained from control neurons. For synaptic co-localisation experiments, tau and PSD-95 positive immunostaining were compared. The number of tau-positive sites that co-localized with PSD-95 positive sites were counted and expressed as a percentage of total positive sites (peaks of intensity).

Question: “GLQKPE (listed as Mus musculus) [leptin (124-129)]” was tested. Which “reduction of p-tau expression compared with Aβ1-42 alone” value [1] did it give?
Answer: The value was “did not”.

Question: What about the “reduction of LDH release compared with Aβ1-42 alone, hexamer study” value [2] of the same molecule?
Answer: The value was “did not”.

Question: What about the “GluA1 surface expression, hexamer study” value [3] of the same molecule?
Answer: Its value is 89±6 % of control.

Question: And the “magnitude of LTP after HFS (100 Hz, 1 s)” value (acute hippocampal slices)?
Answer: The value was 137±5.6 % of baseline.

Question: And the “increase in mitochondrial activity compared with Aβ1-42 alone” value [4]?
Answer: Its value is “did not”.

Question: How did the “% co-localization of tau and PSD-95 in Aβ1-42-treated neurons” value [5] turn out when `Cn1cc(C2=C(c3ccc(Cl)cc3Cl)C(=O)NC2=O)c2ccccc21` [SB216763, reference compound] was run?
Answer: Its value is “decreased % tau/PSD-95 co-localization”.

Question: What about the “relative tau intensity in Aβ1-42-treated neurons” value [5] of the same molecule?
Answer: The value was “mirrors the effects of leptin”.

Question: For “PQTSGL (listed as Mus musculus) [leptin (120-125)]”, which “GluA1 surface expression, hexamer study” value [3] is on record?
Answer: Its value is “increased the surface expression of GluA1”.

Question: What about the “magnitude of LTP after HFS (100 Hz, 1 s)” value (acute hippocampal slices) of the same molecule?
Answer: The value was 163±8.8 % of baseline.

Question: Which “reduction of p-tau expression compared with Aβ1-42 alone” value [1] does the source give for “LQKPES (SCHLPWASGL; listed as Homo sapiens) [leptin (125-130)]” here?
Answer: Its value is “did not”.

Question: And the “reduction of LDH release compared with Aβ1-42 alone, hexamer study” value [2]?
Answer: Its value is “did not”.

Question: And the “GluA1 surface expression, hexamer study” value [3]?
Answer: The value was 98±5 % of control.

Question: What about the “magnitude of LTP after HFS (100 Hz, 1 s)” value (acute hippocampal slices) of the same molecule?
Answer: The value was 137±2.4 % of baseline.

Question: What about the “increase in mitochondrial activity compared with Aβ1-42 alone” value [4] of the same molecule?
Answer: The value was “did not”.

Question: What does the source list for “SLPQTS (listed as Mus musculus) [leptin (118-123)]”?
Answer: GluA1 surface expression, hexamer study [3]: increased the surface expression of GluA1; magnitude of LTP after HFS (100 Hz, 1 s) (acute hippocampal slices): 158±3.8 % of baseline

Question: With “leptin (121-126): leptin fragment amino acids 121-126 (WASGLE; UniProt P41159 121-126, looked up, fragment)” as the molecule, how does the “GluA1 surface expression, hexamer study” value [3] read?
Answer: The value was “failed to significantly alter the surface expression of GluA1”.

Question: With “bisperoxovanadium [bpV, reference compound]” as the molecule, how does the “GluA1 surface expression, agent alone (PTEN study)” value ([3]; bpV 50 nM, 30 min) read?
Answer: The value was 148±8 % of control.

Question: Which “GluA1 surface expression, hexamer study” value [3] does the source give for “leptin (122-128): leptin fragment amino acids 122-128 (ASGLETL; UniProt P41159 122-128, looked up, fragment)” here?
Answer: The value was “failed to significantly alter the surface expression of GluA1”.

Question: `C[C@H](NC(=O)/C(C#N)=C/c1cccc(Br)n1)c1ccccc1` [WP1066, reference compound] was tested. Which “effect of inhibitor on leptin (116-130)-mediated neuroprotection (LDH)” value ([2]; WP1066 5 μM, wortmannin 50 nM) did it give?
Answer: The value was “prevented leptin (116-130)-mediated neuroprotection”.

Source: patent US20200255492A1, “LEPTIN PEPTIDES AND THEIR USE FOR TREATING NEUROLOGICAL DISORDERS” (UNIVERSITY OF DUNDEE, priority 2017, published 2020)
